Experimental data taken from patent US20040138274A1, “Novel pharmaceuticals” (priority 2002, published 2004).

Legend:
NEP from human kidney = target: T1, NEP from human kidney (Homo sapiens, UniProt P08473); assay: Assay 2: modified NEP fluorescence assay for potent tight-binding inhibitors; type: biochemical; settings: as determined by Assay 2, substrate Abz-D-Arg-Arg-Leu-EDDnp, read-out: IC50 against NEP
T1 construct: Enzyme: NEP from human kidney (prepared using the method of Kenny and Booth); from tissue; host or cells: human kidney
T1 sequence (P08473 whole entry): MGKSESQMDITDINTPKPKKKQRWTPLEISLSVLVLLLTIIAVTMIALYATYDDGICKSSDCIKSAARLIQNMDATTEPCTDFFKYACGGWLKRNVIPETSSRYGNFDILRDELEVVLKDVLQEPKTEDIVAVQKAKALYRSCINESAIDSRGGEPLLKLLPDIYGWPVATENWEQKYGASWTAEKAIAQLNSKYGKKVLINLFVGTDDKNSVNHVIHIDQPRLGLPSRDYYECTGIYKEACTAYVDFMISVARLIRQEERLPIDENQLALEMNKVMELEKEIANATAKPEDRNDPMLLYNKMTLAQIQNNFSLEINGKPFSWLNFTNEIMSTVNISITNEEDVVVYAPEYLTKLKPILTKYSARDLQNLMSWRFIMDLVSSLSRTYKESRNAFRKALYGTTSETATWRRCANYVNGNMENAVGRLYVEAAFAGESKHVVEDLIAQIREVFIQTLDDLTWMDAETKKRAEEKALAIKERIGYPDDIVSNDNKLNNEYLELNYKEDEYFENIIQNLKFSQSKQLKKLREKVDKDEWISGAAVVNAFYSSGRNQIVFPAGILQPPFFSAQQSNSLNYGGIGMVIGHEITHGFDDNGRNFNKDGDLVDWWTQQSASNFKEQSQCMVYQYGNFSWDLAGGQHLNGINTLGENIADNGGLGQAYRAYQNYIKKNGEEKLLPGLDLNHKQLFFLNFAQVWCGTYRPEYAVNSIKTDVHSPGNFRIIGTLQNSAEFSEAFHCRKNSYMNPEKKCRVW
Procedure: Assay 2: This is a modification of Assay 1 which is adapted for potent tight-binding inhibitors.
Buffer: 50 mM Tris pH 7.4
Buffer containing 4% DMSO: 4 ml DMSO added to 96 ml buffer
Enzyme: NEP from human kidney (prepared using the method of Kenny and Booth, Biochem. J. 142, 575, 1974) aliquots stored at −70° C. The NEP activity of each preparation is determined by using serial dilutions of the preparation in this assay without inhibitor, a dilution that achieves 10 to 15% conversion of substrate is used in inhibitor studies.
Inhibitors: Inhibitors are dissolved in DMSO to give a 10 mM solution then further diluted to 1 mM in DMSO. A further dilution is made (40 μl into 960 μl buffer) to give 4×10^−5M inhibitor in buffer containing 4% DMSO. All further dilutions are made in buffer containing 4% DMSO. Inhibitors are assayed utilising an eight point (half log units) dose response curve in duplicate.
Substrate: The substrate (Abz-D-Arg-Arg-Leu-EDDnp, K. M. Carvalho et al. Analytical Biochem 237, 167-173 (1996)) is stored at −70° C. A 2 mM stock is made in buffer and aliquots stored at −70° C. for up to 1 month.
Stop solution: Phosphoramidon (Sigma R7385) 300 nM in buffer. Aliquots of 300 μM solution are stored at −20° C. and diluted 1000 fold in buffer.
Product: Two samples corresponding to 100% conversion of substrate to product are included in the assay to enable the % substrate turnover to be determined. Add 200 μl of 25 μM product and 100 μl stop solution. A stock of this is generated by incubating 1 ml of 25 μM substrate with 20 μl of enzyme stock overnight at 37° C., aliquot and store at −70° C.
Plates: Black Costar 96 well plate Cat# 3915
Fluorescence reader: BMG Fluostar, read at ex320 em420
1. Add 50 μl of inhibitor (4× assay conc)
3. Add 50 μl of enzyme dilution (1:800)
4. Incubate at 37° C. for 1 hour
5. Initiate the reaction by adding 20 μl of substrate
5. Incubate at 37° C. for 3 hours
6. Add 100 μl of stop solution.
7. Read fluorescence using a FLUOstar. (Ex320/Em420
Included in each assay are:
Non enzyme blanks (enzyme replaced with buffer and compound dilution replaced with 4% DMSO buffer)
Controls (compound dilution replaced with 4% DMSO buffer)
Total product (see below)

[1] = test system: black patients with essential hypertension; settings: clinical study of 24 black patients with essential hypertension; cited from earlier work
hypertensive patients = settings: added to the ACE inhibitor lisinopril; clinical study involving 37 hypertensive patients; cited from earlier work
hypertensive rats = settings: cited from earlier work

SMILES | IC50 (NEP from human kidney) [nM] | other results
COCC[C@H](CC1(C(=O)N[C@@H](Cc2ncc(-c3ccccc3)o2)C(=O)O)CCCC1)C(=O)O [Example 40, (2S)-2-{1-[(1S)-1-Carboxy-2-(5-phenyl-oxazol-2-yl)-ethylcarbamoyl]-cyclopentylmethyl}-4-methoxy-butyric Acid] | 0.3 | –
COCC[C@H](CC1(C(=O)N[C@@H](Cc2ncc(-c3ccc(Cl)cc3)o2)C(=O)O)CCCC1)C(=O)O [Example 30, (2S)-2-(1-{(1S)-1-Carboxy-2-[5-(4-chloro-phenyl)-oxazol-2-yl]-ethylcarbamoyl}-cyclopentylmethyl)-4-methoxy-butyric Acid] | 0.3 | –
CC1(C)OCC(COC(=O)C(Cc2ccccc2)N[C@@H](Cc2ccccc2)C(=O)NCCC(=O)O)O1 (stereo partly shown) [SCH34826] | – | supine blood pressure [1]: significantly lowered supine blood pressure
COCCOC[C@H](CC1(C(=O)N[C@H]2CC[C@@H](C(=O)O)CC2)CCCC1)C(=O)Oc1ccc2c(c1)CCC2 [candoxatril] | – | supine and erect blood pressure (hypertensive patients): marked reduction in both supine and erect blood pressure
CCC[C@H](CC1(C(=O)N[C@@H](Cc2ncc(-c3ccccc3)o2)C(=O)O)CCCC1)C(=O)O [Example 29, (2R)-2-{1-[(1S)-1-Carboxy-2-(5-phenyl-oxazol-2-yl)-ethylcarbamoyl]-cyclopentylmethyl}-pentanoic Acid] | 0.7 | –
COCC[C@H](CC1(C(=O)N[C@@H](Cc2ncc(-c3ccc(F)cc3)o2)C(=O)O)CCCC1)C(=O)O [Example 26] | 0.3 | –
COCCOC[C@H](CC1(C(=O)N[C@H]2CC[C@@H](C(=O)O)CC2)CCCC1)C(=O)O [candoxatrilat] | – | systolic blood pressure (hypertensive rats): lowers systolic blood pressure
